Assay results published in ChEMBL document CHEMBL3596172 (J Med Chem, 2015).

Biological target: D(3) dopamine receptor (Homo sapiens, UniProt P35462)
Assay: biochemical
Description: Displacement of [3H]-N-methylspiperone from human dopamine D3 receptor (unknown origin) expressed in HEK293 cells after 1 hr by liquid scintillation counting

Chain of D(3) dopamine receptor (P35462 whole entry): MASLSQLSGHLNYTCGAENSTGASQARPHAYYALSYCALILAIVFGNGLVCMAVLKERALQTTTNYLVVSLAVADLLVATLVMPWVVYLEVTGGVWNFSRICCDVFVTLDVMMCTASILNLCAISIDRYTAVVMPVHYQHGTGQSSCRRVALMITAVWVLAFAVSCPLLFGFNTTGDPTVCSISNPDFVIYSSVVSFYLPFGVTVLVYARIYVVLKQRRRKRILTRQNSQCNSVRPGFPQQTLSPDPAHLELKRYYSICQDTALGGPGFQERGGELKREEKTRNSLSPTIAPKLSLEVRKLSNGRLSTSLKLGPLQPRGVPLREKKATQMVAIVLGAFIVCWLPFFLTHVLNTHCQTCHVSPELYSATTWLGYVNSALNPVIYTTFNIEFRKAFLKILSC

Row | Ki | SMILES
1 | 0.244 nM | O=C(NCCCCN1CCN(c2cccc3ccccc23)CC1)c1cc2ccccc2o1
2 | 31.6 nM | COc1c(Cl)cccc1N1CCN(CC(O)CCNC(=O)c2cnc3ccccc3c2)CC1 (stereo not given)
3 | 0.57 nM | O=C(NCCCCN1CCN(c2cccc(Cl)c2Cl)CC1)c1cnc2ccc(F)cc2c1
4 | 8.05 nM | O=C(NCCC(O)CN1CCN(c2cccc(Cl)c2Cl)CC1)c1cnc2ccc(F)cc2c1 (stereo not given)
5 | 0.907 nM | COc1c(Cl)cccc1N1CCN(CCCCNC(=O)c2cc3ccccc3o2)CC1
6 | 0.173 nM | COc1ccc2[nH]c(C(=O)NCCCCN3CCN(c4cccc5ccccc45)CC3)cc2c1
7 | 97.9 nM | COc1ccccc1N1CCN(CC(O)CCNC(=O)c2ccc3ccccc3n2)CC1 (stereo not given)
8 | 2.51 nM | COc1ccccc1N1CCN(CCCCNC(=O)c2ccc3cc(F)ccc3n2)CC1
9 | 53.1 nM | COc1ccccc1N1CCN(CC(O)CCNC(=O)c2ccc3cc(F)ccc3n2)CC1 (stereo not given)
10 | 2.14 nM | COc1ccccc1N1CCN(CCCCNC(=O)c2cnc3ccc(F)cc3c2)CC1
11 | 44.8 nM | COc1ccccc1N1CCN(CC(O)CCNC(=O)c2cnc3ccc(F)cc3c2)CC1 (stereo not given)
12 | 52.9 nM | COc1ccccc1N1CCN(CC(O)CCNC(=O)c2cnc3ccc(C)cc3c2)CC1 (stereo not given)
13 | 69.9 nM | COc1ccc2ncc(C(=O)NCCC(O)CN3CCN(c4ccccc4OC)CC3)cc2c1 (stereo not given)
14 | 37.7 nM | COc1ccccc1N1CCN(CC(O)CCNC(=O)c2ccc3cccnc3c2)CC1 (stereo not given)

Row | SMILES | Ki
15 | COc1ccccc1N1CCN(CCCCNC(=O)c2ccc3ccccc3n2)CC1 | 3.46 nM
